Reference: US9732075B2, “Benzimidazole-proline derivatives” (IDORSIA PHARMACEUTICALS LTD, priority 2012, dated 2017)

How the values were obtained:
human orexin-2 receptor = human orexin-2 receptor (Homo sapiens (Human), UniProt O43614); experiment: In vitro assay: intracellular calcium measurements (FLIPR), antagonistic activity; type: cell-based; settings: CHO cells expressing human orexin-2 receptor, orexin-A agonist, geometric mean, read-out: IC50 Ox2
Procedure, shortened: (§1)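 Dye-loaded CHO cells expressing either human orexin receptor are exposed to test antagonist for 120 min, then stimulated with orexin-A at 3 nM.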

human orexin-1 receptor = human orexin-1 receptor (Homo sapiens (Human), UniProt O43613); experiment: as above; type: cell-based; settings: CHO cells expressing human orexin-1 receptor, orexin-A agonist, geometric mean, read-out: IC50 Ox1
Procedure, shortened: as §1

Sequence of human orexin-2 receptor (O43614 whole entry): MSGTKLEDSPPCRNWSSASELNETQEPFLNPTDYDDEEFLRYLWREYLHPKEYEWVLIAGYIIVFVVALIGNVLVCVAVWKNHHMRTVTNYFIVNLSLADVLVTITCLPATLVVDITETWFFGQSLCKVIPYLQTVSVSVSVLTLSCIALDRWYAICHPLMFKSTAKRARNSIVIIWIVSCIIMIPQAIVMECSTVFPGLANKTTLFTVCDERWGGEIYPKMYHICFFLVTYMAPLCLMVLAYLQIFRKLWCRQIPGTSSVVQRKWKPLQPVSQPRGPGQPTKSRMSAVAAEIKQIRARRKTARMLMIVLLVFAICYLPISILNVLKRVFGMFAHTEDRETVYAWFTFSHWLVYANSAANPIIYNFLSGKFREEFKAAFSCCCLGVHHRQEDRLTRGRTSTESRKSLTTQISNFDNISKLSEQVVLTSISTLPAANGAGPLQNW
Sequence of human orexin-1 receptor (O43613 whole entry): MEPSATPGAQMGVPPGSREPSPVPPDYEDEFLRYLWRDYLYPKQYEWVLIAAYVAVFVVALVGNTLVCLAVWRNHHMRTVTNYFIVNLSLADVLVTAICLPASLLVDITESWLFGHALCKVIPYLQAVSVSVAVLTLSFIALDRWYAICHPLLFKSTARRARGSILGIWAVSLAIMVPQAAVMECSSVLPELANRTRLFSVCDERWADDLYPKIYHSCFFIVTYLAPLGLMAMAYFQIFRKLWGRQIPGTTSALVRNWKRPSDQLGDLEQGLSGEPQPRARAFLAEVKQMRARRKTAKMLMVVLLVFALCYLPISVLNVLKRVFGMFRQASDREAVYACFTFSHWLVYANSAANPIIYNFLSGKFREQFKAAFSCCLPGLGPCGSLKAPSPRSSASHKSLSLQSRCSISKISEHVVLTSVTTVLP

SMILES: COc1ccc(-n2nccn2)c(C(=O)N2CC[C@H](C)[C@H]2c2nc3cc(Cl)c(C)cc3[nH]2)c1 [Ex. 4.74]
- IC50 (human orexin-2 receptor): 78 nM
- IC50 (human orexin-1 receptor): 4 nM

SMILES: Cc1cc2[nH]c([C@@H]3[C@@H](C)CCN3C(=O)c3c(-n4nccn4)ccc(C)c3F)nc2cc1Cl [Ex. 4.75]
- IC50 (human orexin-2 receptor): 636 nM
- IC50 (human orexin-1 receptor): 8 nM

SMILES: Cc1cc2[nH]c([C@@H]3[C@@H](C)CCN3C(=O)c3ccccc3-n3nccn3)nc2cc1Cl [Ex. 4.76]
- IC50 (human orexin-2 receptor): 113 nM
- IC50 (human orexin-1 receptor): 8 nM

SMILES: Cc1ccc(-c2ccccc2C(=O)N2CC[C@H](C)[C@H]2c2nc3cc(Cl)c(C)cc3[nH]2)cc1 [Ex. 4.77]
- IC50 (human orexin-2 receptor): 790 nM
- IC50 (human orexin-1 receptor): 5 nM

SMILES: Cc1nc(C(=O)N2CC[C@H](C)[C@H]2c2nc3cc(Cl)c(C)cc3[nH]2)c(-c2ccc(Cl)cc2)s1 [Ex. 4.78]
- IC50 (human orexin-2 receptor): 1630 nM
- IC50 (human orexin-1 receptor): 3 nM

SMILES: Cc1ccc(-c2nc(C)sc2C(=O)N2CC[C@H](C)[C@H]2c2nc3cc(Cl)c(C)cc3[nH]2)cc1 [Ex. 4.79]
- IC50 (human orexin-2 receptor): 541 nM
- IC50 (human orexin-1 receptor): 18 nM

SMILES: Cc1nc(C(=O)N2CC[C@H](C)[C@H]2c2nc3cc(Cl)c(C)cc3[nH]2)c(-c2cc(F)cc(F)c2)s1 [Ex. 4.80]
- IC50 (human orexin-2 receptor): 2020 nM
- IC50 (human orexin-1 receptor): 3 nM

SMILES: Cc1cc2nc([C@@H]3[C@@H](C)CCN3C(=O)c3cc(Cl)ccc3-n3nccn3)[nH]c2cc1C [Ex. 4.81]
- IC50 (human orexin-2 receptor): 79 nM
- IC50 (human orexin-1 receptor): 4 nM

SMILES: Cc1ccc(C(=O)N2CC[C@H](C)[C@H]2c2nc3cc(C)c(C)cc3[nH]2)c(-n2nccn2)c1 [Ex. 4.82]
- IC50 (human orexin-2 receptor): 32 nM
- IC50 (human orexin-1 receptor): 4 nM

SMILES: Cc1ccc(-n2cccn2)c(C(=O)N2CC[C@H](C)[C@H]2c2nc3cc(C)c(C)cc3[nH]2)c1 [Ex. 4.83]
- IC50 (human orexin-2 receptor): 2320 nM
- IC50 (human orexin-1 receptor): 159 nM

SMILES: COc1ccc(-n2nccn2)c(C(=O)N2CC[C@H](C)[C@H]2c2nc3cc(C)c(C)cc3[nH]2)c1 [Ex. 4.84]
- IC50 (human orexin-2 receptor): 58 nM
- IC50 (human orexin-1 receptor): 8 nM

SMILES: Cc1cc2nc([C@@H]3[C@@H](C)CCN3C(=O)c3ccccc3-n3nccn3)[nH]c2cc1C [Ex. 4.85]
- IC50 (human orexin-2 receptor): 43 nM
- IC50 (human orexin-1 receptor): 7 nM

SMILES: Cc1ccc(-c2ccccc2C(=O)N2CC[C@H](C)[C@H]2c2nc3cc(C)c(C)cc3[nH]2)cc1 [Ex. 4.86]
- IC50 (human orexin-2 receptor): 352 nM
- IC50 (human orexin-1 receptor): 7 nM

SMILES: Cc1nc(C(=O)N2CC[C@H](C)[C@H]2c2nc3cc(C)c(C)cc3[nH]2)c(-c2ccc(Cl)cc2)s1 [Ex. 4.87]
- IC50 (human orexin-2 receptor): 2080 nM
- IC50 (human orexin-1 receptor): 4 nM

SMILES: Cc1ccc(-c2nc(C)sc2C(=O)N2CC[C@H](C)[C@H]2c2nc3cc(C)c(C)cc3[nH]2)cc1 [Ex. 4.88]
- IC50 (human orexin-2 receptor): 182 nM
- IC50 (human orexin-1 receptor): 11 nM

SMILES: Cc1nc(C(=O)N2CC[C@H](C)[C@H]2c2nc3cc(C)c(C)cc3[nH]2)c(-c2cc(F)cc(F)c2)s1 [Ex. 4.89]
- IC50 (human orexin-2 receptor): 2170 nM
- IC50 (human orexin-1 receptor): 3 nM

SMILES: Cc1nc(C(=O)N2CC[C@H](C)[C@H]2c2nc3cc(C)c(C)cc3[nH]2)c(-c2ccc(F)cc2)s1 [Ex. 4.90]
- IC50 (human orexin-2 receptor): 2350 nM
- IC50 (human orexin-1 receptor): 6 nM

SMILES: Cc1cc(Cl)cc2[nH]c([C@@H]3[C@@H](C)CCN3C(=O)c3cc(Cl)ccc3-n3nccn3)nc12 [Ex. 4.91]
- IC50 (human orexin-2 receptor): 183 nM
- IC50 (human orexin-1 receptor): 17 nM

SMILES: Cc1ccc(-c2ccccc2C(=O)N2CC[C@H](C)[C@H]2c2nc3c(C)cc(Cl)cc3[nH]2)cc1 [Ex. 4.92]
- IC50 (human orexin-2 receptor): 212 nM
- IC50 (human orexin-1 receptor): 5 nM

SMILES: Cc1ccc(C(=O)N2CC[C@H](C)[C@H]2c2nc3c(C)cc(Cl)cc3[nH]2)c(-n2nccn2)c1 [Ex. 4.93]
- IC50 (human orexin-2 receptor): 74 nM
- IC50 (human orexin-1 receptor): 4 nM

SMILES: Cc1nc(C(=O)N2CC[C@H](C)[C@H]2c2nc3c(C)cc(Cl)cc3[nH]2)c(-c2ccc(Cl)cc2)s1 [Ex. 4.94]
- IC50 (human orexin-2 receptor): 543 nM
- IC50 (human orexin-1 receptor): 3 nM

SMILES: Cc1ccc(-n2cccn2)c(C(=O)N2CC[C@H](C)[C@H]2c2nc3c(C)cc(Cl)cc3[nH]2)c1 [Ex. 4.95]
- IC50 (human orexin-2 receptor): 1170 nM
- IC50 (human orexin-1 receptor): 28 nM

SMILES: Cc1ccc(-c2nc(C)sc2C(=O)N2CC[C@H](C)[C@H]2c2nc3c(C)cc(Cl)cc3[nH]2)cc1 [Ex. 4.96]
- IC50 (human orexin-2 receptor): 996 nM
- IC50 (human orexin-1 receptor): 31 nM

SMILES: COc1ccc(-n2nccn2)c(C(=O)N2CC[C@H](C)[C@H]2c2nc3c(C)cc(Cl)cc3[nH]2)c1 [Ex. 4.97]
- IC50 (human orexin-2 receptor): 129 nM
- IC50 (human orexin-1 receptor): 4 nM
